Experimental findings from US20180271847A1, “TREATMENT OF ACUTE TRAUMATIC INJURY” (priority 2015, published 2018) are described below.

The subject of assay [1] is skeletal muscle atrophy. Briefly: Skeletal muscle atrophy after sciatic nerve crush injury. Type of assay: in vivo, mouse. The source says: FIGS. 10A-10F show the rescue of skeletal muscle from atrophy induced by crush injury to the sciatic nerve by daily administration of clinically relevant dosages of 4-AP.
These stem cells are believed to play roles in preventing and/or repairing muscle atrophy.
In particular, 4-AP was applied as a means of preventing skeletal muscle atrophy following damage to the nerve innervating muscles of limb, as illustrated in FIG. 10. In these experiments, the sciatic nerve of the mouse was crushed in such a manner that not all axons were severed. In these injuries, skeletal muscle atrophy is a significant consequence, just as it is in patients with similar injuries. This type of injury can be a problem for many reasons, including the fact that if atrophy is not stopped or reversed within a relatively short period of time, the damage done may become irreversible.

In assay [2] the test system is lipofuscin. Put plainly: Auto-fluorescence / lipofuscin accumulation after spinal cord contusion injury. Format: in vivo. To be noted: rats with contusion injuries to the spinal cord. The source says:
4-aminopyridine administration decreases auto-fluorescence following contusion injury to the spinal cord. One of the responses to tissue injury in a broad variety of tissues is the accumulation of substances that may be given the general name of lipofuscin, a name given to lipid-containing residues of lysosomal digestion. This pigment is thought to be the product of oxidation of unsaturated fatty acids and is considered indicative of membrane damage of a nature that occurs widely in tissue injury, a variety of diseases and in aging. Lipofuscin is most readily observed as an auto-fluorescent component of tissue that is seen when tissue is excited with a wide range of […] wavelengths normally used for studying fluorescently labeled proteins, such as antibodies, that are widely used in studying all of the tissues of the body. Lipofuscin accumulation has been reported for cell types of a wide range of tissues, particularly after injury, including liver, kidney, heart muscle, retina, adrenal gland, nerve cells, and red-blood cells, in post-traumatic arthritis and in other tissues.
This is another wholly unexpected ability of 4-AP to beneficially modulate an outcome of traumatic injury that is applicable to a wide range of different tissues.

Assay [3] relates to contusion injury to the spinal cord. Briefly: Lesion volume 3 days after spinal cord contusion injury. Format: in vivo. The following applies: rats with spinal cord contusion, sacrificed 3 days after injury. As to the method:
FIG. 7 is a graph showing the unexpected ability of 4-AP to modulate outcomes of traumatic injury that are of relevance to the injury in all tissues of the body is the ability to decrease lesion size. In these experiments, rats received identical injuries as discussed in Example 1, except that these rats were sacrificed 3 days after injury. Lesion size, in cubic millimeters (mm^3) was calculated by imaging collected tissue sections covering the full dimensions of the injury using Stereolnvestigator and contours were traced to cover the region of the tissue in which damage was apparent. All slides were measured by a blinded individual. Lesion volume was thus determined. […]
Still another example of the unexpected ability of 4-AP to modulate outcomes of traumatic injury that are of relevance to such injury in all tissues of the body is the ability to decrease lesion size. […] Lesion size, in cubic millimeters (mm^3) was calculated by imaging collected tissue sections covering the full dimensions of the injury using Stereolnvestigator and contours were traced to cover the region of the tissue in which damage was apparent. All slides were measured by a blinded individual. Lesion volume was thus determined.

Assay [4] relates to motor neurons. Put plainly: Count of large NeuN+ putative motor neurons in spinal cord 28 days after injury. To be noted: rats, 28 days after spinal cord injury; large NeuN+ cells, ventral side of the cord. Type of assay: in vivo. The source says:
FIGS. 8A-8C show the rescue of motor neurons by administration of 4-AP in acute traumatic injury to the spinal cord of the central nervous system. Another example of an unanticipated ability of the administration of 4-AP to provide benefit in acute traumatic injury was obtained by examining the number of motor neurons present in spinal cords of rats analyzed 28 days after injury, as in Example 1. Tissue sections were labeled with antibodies to the NeuN antigen, which is a marker of all neuronal populations. Due to the size and location of these neurons, they can only be motor neurons. Large neurons on the ventral side of the cord were then counted, in regions similarly distal or proximal to the lesion site. […] FIGS. 8B and 8C are graphs showing quantification of large NeuN+ cells in 1 mm^3 region proximal (p=0.06) and distal (p=0.04) to the lesion edge in 4-AP and control sections. […]
Rescue of motor neurons by administration of 4-AP in acute traumatic injury to the spinal cord of the central nervous system. Another example of an unexpected ability of the administration of 4-AP to provide benefit in acute traumatic injury was obtained by examining the number of motor neurons present in spinal cords of rats analyzed 28 days after injury, as in Example 1. […] Large neurons on the ventral side of the cord were then counted, in regions similarly distal or proximal to the lesion site.

Assay [5] relates to Sox 9. Put plainly: Sox 9 immunofluorescence in spinal cord sections after contusion injury. Type of assay: in vivo. To be noted: rats with contusion injuries to the spinal cord, versus control. The source says: FIG. 5A and FIG. 5B are images illustrating a section of control (FIG. 5A) and 4-AP (FIG. 5B) treated animals labeled with anti-Sox 9 (bright spots) and DAPI (darker grey). Arrows highlight the cells that were used to define the baseline threshold for Sox 9 immunofluorescence. Size bar represents 20 μm. FIG. 5C is a graph showing quantification of FIG. 5A and FIG. 5B using the threshold shown in A as baseline. N=3, *p=0.045 t-test.
The ability of daily 4-AP administration to provide benefit at the tissue level was investigated, leading to the wholly unexpected discovery of effects of 4-AP that are relevant to traumatic injuries in a wide range of tissues. The first such observation came from examination of the expression of Sox 9, a transcription factor that is expressed in a wide range of tissues of the nervous system, other excitable tissues and tissues that are not considered to be excitable (including, for example, pancreas, lung, chondrocytes, cartilage, liver, breast, prostate, colorectal, intestine and testis). Among other roles, Sox 9 controls production and expression of chondroitin sulfate proteoglycan, a critical component of scar in many different tissues. […]

Assay [6] relates to P-zero myelin protein. Put plainly: P0 myelin protein in tissue lysates after sciatic nerve crush. Format: in vivo. To be noted: mice, tissue lysates at 21 days post-injury/treatment.
Where [7] appears, read: mouse, sciatic nerve crush injury.

As to `Nc1ccncc1` [4-AP, 4-aminopyridine], in assay [1] (both at 7 days and 14 days post nerve crush injury), the “numbers of Pax7+ muscle stem cells” value was “increased the numbers of Pax7+ cells”. Also, in assay [1] (mice, 7 days after nerve crush injury, daily 4-AP), the muscle strength result is on record as “greater muscle strength as compared with saline-treated mice”. Moreover, in assay [1] (setting [7]), the “expression of MuRF-1 in muscle” value is recorded as “decreases expression of MuRF-1” and the “expression of myogenin in muscle” value is on record as “decreases expression of myogenin”. The “muscle atrophy judged by cross-sectional size of muscle” value in assay [1] (mouse, sciatic nerve crush injury, daily 4-AP) is “decreases muscle atrophy”. The “lipofuscin accumulation (tissue auto-fluorescence)” value in assay [2] is recorded as “little evidence of lipofuscin accumulation”. Moreover, the “lesion size (lesion volume)” value in assay [3] was “greatly decreasing lesion size”. In assay [4], the “number of motor neurons in regions distal to the injury” value is recorded as “clearly significant increase in the number of motor neurons” and the “number of motor neurons in regions proximal to the injury” value is “very similar degree of increase in motor neurons”. In addition, the “expression of Sox9” value in assay [5] was “greatly decrease the expression of Sox9”. Moreover, the “more P0 protein in the lesion area than in nerves of vehicle-treated animals” value in assay [6] is reported as 61+/−15%.
